From patent publication US20160067267A1, “MYO-INOSITOL TRISPYROPHOSPHATE AS AN ANTI-OBESITY AGENT” (NormOxys, Inc., priority 2013, published 2016)

Assays:
[1] = First study: prevention of weight gain on high fat diet, ITPP in drinking water, 120 days; type: in vivo
Experimental: (§1) Experiments were conducted in analogue ways. First, 30 Balb/c-mice, 10 mice in each group, were assessed. Group 1 was a control group; mice were fed with normal mouse food and water for the whole duration of the experiment (120 days). […] Group III was fed with high fat diet, normal food and, instead of normal water, animals drank an ITPP solution for the duration of the experiment of (ITPP). The concentration was 10 g ITPP per liter water, containing no calcium salt, pH˜6.8-7.2).
(§2) The HFD was 235HF (U8955 version 9) casein 20%, corn starch 13%, sucrose 24.3%, cellulose 5%, malto dextrin 2.2%, lard 25%, soja oil 2.5%, mineral 205B SAFE 7%, and vitamine 200 SAFE 1%.
(§3) All food, water, and ITPP were given ad libitum. In 5 days intervals, body weights from each animal were recorded.

[2] = Second study: prevention of weight gain on high fat diet, ITPP in drinking water, 70 days; type: in vivo; conditions: FIG. 2
Experimental: as §1, §2, §3
As before, in 5 days intervals body weights of the Balb/c-mice were measured.

[3] = Third study: weight loss of overweight mice on normal food drinking ITPP solution, about 30 days; type: in vivo, Balb/c-mice; conditions: FIG. 3, normal mouse food, water with ITPP 10 g per liter
Experimental: In a third study the group with the 10 mice which had gained weight (˜30%) was divided in two groups (5 animals per cage). For 1 month, one group drank water while the other one drank an ITPP-solution (10 g/L) for about 30 days until the date of observation. The food was normal mouse food as before (pellets from SAFE, France). The body weights of the mice were measured 4 times until the final day.

With O=P1(O)OC2C3OP(=O)(O)OP(=O)(O)OC3C3OP(=O)(O)OP(=O)(O)OC3C2OP(=O)(O)O1 (stereo not drawn) [ITPP, inositol-tripyrophosphate] the “weight of Balb/c mice” value ([1]; FIG. 1, HFD + ITPP solution 10 g per liter water ad libitum, oral, 70 days after beginning, HFD/water mice ~40 g) was roughly 30 g, the “tolerability of ITPP solution” value ([1]; FIG. 1, HFD + ITPP solution 10 g/L ad libitum, oral) was “well tolerated” and the “first day with significant differences in weight, HFD/water versus HFD/ITPP” value ([1]; HFD + ITPP in water versus HFD + water) was 10 days. For the same molecule, the “weight increase of ITPP drinking group on HFD” value ([1]; HFD + ITPP in water, whole period of the experiment, compared with normal-food control group) was “did not increase their weight at all”, the “mortality and general condition” value ([1]; orally offered ITPP solution with HFD, two periods (120 days and 70 days), fur, eyes, vitality normal) was “No animal died or was suffering” and the “tolerability of ITPP” value ([2]; HFD + ITPP 10 g/L in drinking water) was “tolerated very well”. The “weight of Balb/c mice” value ([2]; HFD/ITPP consumers, 10 g/L in drinking water, 70 days, HFD/water mice ~40 g) was less than 30 g, the weight gain ([2]; HFD/ITPP consumers, 70 days, HFD/water mice gained approximately 30%) was “did not gain significant weight” and the “weight loss versus untreated group” value [3] was “lost considerably more weight than the untreated group”.
